For series [1], the system named is THP-1. Briefly: Antiinflammatory activity in PMA-treated human THP1 cells assessed as inhibition of LPS-induced TNFalpha production at 8 uM incubated for 24 hrs prior to LPS challenge measured after 24 hrs by ELISA relative to control. The series is classed as functional. (ELISA stands for enzyme-linked immunosorbent assay.)
Series [2] deals with THP-1. Briefly: Cytotoxicity against PMA-treated human THP1 cells assessed as cell viability at 8 to 10 uM after 48 hrs by SRB assay. The settings on record: thp-1, 48 h. The series is classed as cell-based. Background: In SRB staining, fixed cells bind dye roughly in proportion to their protein.
Series [3] in a line: Ratio of trolox EC50 to compound EC50 for ABTS free radical scavenging activity.
Series [4] in a line: Antioxidant activity assessed as ABTS free radical scavenging activity measured up to 6 mins by spectrophotometric analysis. The class given is functional.
The test system of series [5] is THP-1. Briefly: Antiinflammatory activity in PMA-treated human THP1 cells assessed as inhibition of LPS-induced TNFalpha production at 2 uM incubated for 24 hrs prior to LPS challenge measured after 24 hrs by ELISA. The class given is functional, cell-based.
Series [6] deals with THP-1. Briefly: Antiinflammatory activity in PMA-treated human THP1 cells assessed as inhibition of LPS-induced TNFalpha production at 10 uM incubated for 24 hrs prior to LPS challenge measured after 24 hrs by ELISA relative to control. The class given is functional.
The test system of series [7] is THP-1. Briefly: Antiinflammatory activity in PMA-treated human THP1 cells assessed as inhibition of LPS-induced TNFalpha production at 6 uM incubated for 24 hrs prior to LPS challenge measured after 24 hrs by ELISA relative to control. The series is classed as functional.

Active and inactive are the calls of the source. The rule behind the calls is not given here.

Broadly, the inhibition is the share of the control response that was lost under treatment. For orientation: EC50 means the concentration that produces a half-maximal response.

`COc1c(C)cc(O)cc1/C=C/C(C)(O)CC(=O)/C=C(/C)CCCC(C)C(=O)/C=C/C(C)(C)O` (centres undefined) [CYSTODIONE A]: the inhibition at 8 µM with THP-1 [1] came to 33%. Also, the Activity entry in the series on THP-1 [2] is on record as “Non-toxic”. Moreover, the Ratio EC50 in series [3] worked out at 1.15. Further, in series [4], the concentration for a half-maximal effect (EC50) was determined as 22.5 µM.

For the molecule `COc1c(C)cc(O)cc1C/C=C(\C)CC(=O)/C=C(/C)CCCC(C)C(=O)/C=C/C(C)(C)O` (centres undefined), the inhibition entry with THP-1 [5] was “inactive”. In the series with THP-1 [2], the Activity result is “Non-toxic”. For the same molecule, in series [3], the Ratio EC50 was 0.98. Besides, the half-maximal effective concentration (EC50) in series [4] was found to be 26.3 µM.

As for `COc1c(C)cc(O)cc1C/C=C(\C)CC(=O)/C=C(\C)CCCC(C)(O)C(=O)/C=C/C(C)(C)O` (centres undefined), the inhibition at 10 µM in the series on THP-1 [6] came out at 64%. Besides, in the series with THP-1 [2], the Activity result was “Non-toxic”. In series [3], the Ratio EC50 came to 0.78. In series [4], the EC50 came to 33.1 µM.

Consider `COc1c(C)cc(O)cc1C/C=C(\C)CC(=O)/C=C(/C)CCCC(C)(O)C(=O)/C=C/C(C)(C)O` (centres undefined) [USNEOIDONE Z], for which the inhibition at 10 µM with THP-1 [6] turned out to be 73%. Besides, the Activity result with THP-1 [2] was “Non-toxic”. The Ratio EC50 in series [3] was 0.6. Besides, in series [4], the half-maximal effective concentration (EC50) is 43.1 µM.

Consider `COc1c(C)cc(O)cc1C/C=C(\C)CC(=O)/C=C(\C)CCCC(C)C(=O)/C=C/C(C)(C)O` (centres undefined), for which the Ratio EC50 in series [3] was 1.06. For the same molecule, the EC50 in series [4] came out at 24.5 µM.

For `COc1c(C)cc(O)cc1C/C=C(\C)CC(=O)/C=C(/C)CCCC(C)=O` [CYSTOMEXICONE A], the Ratio EC50 in series [3] came to 0.5. Further, the EC50 in series [4] came out at 51.6 µM.

Take `COc1c(C)cc(O)cc1/C=C/C(C)(O)CC(=O)/C=C(/C)CCCC(C)=O` (centres undefined) [CYSTODIONE C]: in series [3], the Ratio EC50 worked out at 0.46. For the same molecule, the concentration for a half-maximal effect (EC50) in series [4] was 55.9 µM.

Regarding `Cc1c(C)c2c(c(C)c1O)CCC(C)(C(=O)O)O2` (centres undefined) [TROLOX], the Ratio EC50 in series [3] came to 1. The 50% effective concentration (EC50) in series [4] came to 25.9 µM.

Consider `COc1c(C)cc(O)cc1/C=C/C(C)(O)CC(=O)/C=C(\C)CCCC(C)=O` (centres undefined) [CYSTODIONE D], for which the inhibition at 10 µM in the series on THP-1 [6] stood at 11%. The Activity entry with THP-1 [2] is recorded as “Non-toxic”. Moreover, the Ratio EC50 in series [3] turned out to be 0.58. The EC50 in series [4] turned out to be 44.7 µM.

As to `COc1c(C)cc(O)cc1/C=C/C(C)(O)CC(=O)/C=C(\C)CCCC(C)C(=O)/C=C/C(C)(C)O` (centres undefined) [CYSTODIONE B], in the series with THP-1 [7], the inhibition at 6 µM was 11%. Also, the Activity entry with THP-1 [2] is on record as “Non-toxic”. For the same molecule, the Ratio EC50 in series [3] is 1.06. Also, the EC50 in series [4] came out at 24.4 µM.

For the molecule `COc1c(C)cc(O)cc1C/C=C(\C)CC(=O)/C=C(\C)CCCC(C)=O` [CYSTOMEXICONE B], the Ratio EC50 in series [3] came out at 0.78. In series [4], the EC50 stood at 33.3 µM.

The values are drawn from ChEMBL document CHEMBL2331111, “Antioxidant and anti-inflammatory meroterpenoids from the brown alga Cystoseira usneoides” (J Nat Prod, 2013).
